Experimental data as given in a compilation of properties of binary mixtures (doi:10.1007/s10953-019-00868-0).

Assay: xn = mol fraction of the nth substance listed
Conditions: 101.3 kPa

NCCNCCN + CCCC[n+]1ccn(C)c1.F[B-](F)(F)F
viscosity [mPa·s]
Conditions	298.15 K	303.15 K	308.15 K	313.15 K	318.15 K	323.15 K	328.15 K	333.15 K
x2 = 0	–	4.5	3.86	3.4	3.05	2.7	2.45	2.032
x2 = 0.051	6.71	5.56	4.85	4.31	–	3.55	3.2	2.67
x2 = 0.1986	12.1	10.27	8.94	–	7.06	6.33	5.68	–
x2 = 0.2998	17.35	–	–	10.9	9.7	–	–	–
x2 = 0.3995	–	19.78	16.7	–	12.77	–	–	8.72
x2 = 0.4992	31.5	–	22.15	–	16.63	14.65	–	–
x2 = 0.5905	–	–	28.1	24.07	20.88	–	15.53	13.88
x2 = 0.6974	52.6	–	36.3	–	26.6	23.13	–	–
x2 = 0.8012	67.1	56.4	46	38.8	33.2	28.5	23.39	21.3
x2 = 0.8948	82.6	–	55.7	46.5	39.2	33.3	26.7	24.18
x2 = 0.9496	91.9	76.4	60.4	49.8	42	–	27.2	–

CCCC[n+]1ccn(C)c1.F[B-](F)(F)F + NCCNCCN
x1 = 1
Conditions	viscosity [mPa·s]
313.15 K	51.4
318.15 K	42.1
323.15 K	34.8
333.15 K	24.7
